Measured values from patent US20130046098A1, “KINASE INHIBITORS” (THE UNIVERSITY OF MANCHESTER, priority 2009, published 2013).
“Also recorded” adds a separate entry of the source.

Legend:
recombinant ROCK = assay: In vitro ROCK activity assay (Cyclex Rho-kinase immunoassay); format: biochemical; conditions: FIG. 2A bar chart
Method: A specific assay was used to evaluate the ability of the compounds of the invention to inhibit ROCK. Rho-kinase activity was determined using an immunoassay as recommended by the manufacturer (Cyclex Co., Ltd., Nagano, Japan). Briefly, […] samples containing 10 mUnit (1 Unit incorporates 1 nmol of phosphate into GST-MBS/MYPT1 per minute at 30° C.) of recombinant ROCK with or without the compounds of the invention were aliquoted into a 96-well plate (100 μl/well), pre-coated with threonine Rho-kinase phosphorylation substrate. After 30 min incubation at 30° C., the plate was washed three times with PBS then incubated with 100 μl/well of HRP conjugated anti-phospho-specific antibody for 1 h at room temperature. The amount of phosphorylated substrate was determined by adding 100 μl/well of substrate reagent for 10 min and the reaction was terminated by adding 100 μl/well of the stop solution. The absorbance was measured on a 96-well plate reader at 450 nm (Dynex Technologies, West Sussex, UK). Each data point was performed in triplicate and the assay was repeated twice.

ROCK = assay: SelectScreen 40 kinase panel; format: biochemical, human; conditions: 10 μM, Km ATP
Source text: The SelectScreen™ kinase inhibitor assay service was used (Invitrogen Ltd., Paisley, UK) to investigate the ability of the compounds of the invention to inhibit a large number of different kinases. This commercially provided service allows assessment of the ability of a compound (or compounds) of interest to inhibit a broad panel of human kinases. Further details regarding this service are available on the Invitrogen website at:
In the present study YA1 (a compound in accordance with formula (V)) was investigated for its ability to inhibit the activity of the 40 kinases shown in panel B of FIG. 2. The compounds of the invention were diluted in DMSO at a concentration of 10 mM and single-point kinase inhibitory activities were measured at 10 μM and Km ATP concentration.

[1] = system: GEF16 transformed NIH3T3 cells; assay: Flow cytometry of DNA content (cell cycle, sub G1); format: cell-based, mouse
Method: NIH3T3 cells with or without drug treatments (with Y27632 or the compounds of the invention) were harvested at various time points and cell counts carried out to confirm that 1×10^6 cells were present for each cytometric analysis. Cells were washed with PBS, fixed with 70% ice-cold ethanol, pelleted and DNA stained by incubating the cells with propidium iodide ([…]) (Sigma-Aldrich, Poole, UK) at 4° C. for 45 min. Cells were then washed twice with ice-cold PBS and resuspended in 400 μl of PBS. The DNA content during different phases of the cell cycle was then determined by flow cytometry (BD Biosciences, Oxford, UK). Each profile shown was representative of three separate experiments.

[2] = system: polyclonal Ras transformed NIH3T3 cells; assay: Co-culture of Ras transformed cells with non-transformed cells / Ras colony formation; format: cell-based, mouse
Method: FIG. 5 illustrates that the growth suppressive effects of YA1 on single transformed colony derived GEF16 NIH3T3 cells and polyclonal Ras transformed NIH3T3 cells are more pronounced when these are co-cultured with non-transformed cells. In FIG. 5A single transformed colonies were picked from 10 day cultures of GEF16 polyclonal NIH3T3 cells and expanded. These cells were then seeded at 2.0×10^5 cells per 30 mm dish and treated with 10 μM of YA1 or DMSO control either immediately or following 10 days in culture. Duplicate wells were harvested for flow cytometry. In FIG. 5B a total of 2×10^5 cells per well were plated consisting of increasing numbers of non-transformed vector cells co-cultured with decreasing numbers of single transformed colony derived GEF16 cells. These were treated with 10 μM of either YA1 or DMSO for 10 days. […]
Transformed cell populations were produced by transfection with constructs causing cellular expression of GEF16 or Ras as follows. The full-length GEF16 open reading frame (Accession NM_014448) was PCR amplified, sequence verified and subcloned into the mammalian expression vector pCMVTag (Invitrogen Ltd., Paisley, UK) to produce a construct pCMVTag-GEF16 cDNA. […]

ROCK2 = ROCK2 (Homo sapiens, UniProt O75116); assay: SelectScreen additional single point analysis; conditions: 10 μM
Sequence of ROCK2 (O75116 whole entry): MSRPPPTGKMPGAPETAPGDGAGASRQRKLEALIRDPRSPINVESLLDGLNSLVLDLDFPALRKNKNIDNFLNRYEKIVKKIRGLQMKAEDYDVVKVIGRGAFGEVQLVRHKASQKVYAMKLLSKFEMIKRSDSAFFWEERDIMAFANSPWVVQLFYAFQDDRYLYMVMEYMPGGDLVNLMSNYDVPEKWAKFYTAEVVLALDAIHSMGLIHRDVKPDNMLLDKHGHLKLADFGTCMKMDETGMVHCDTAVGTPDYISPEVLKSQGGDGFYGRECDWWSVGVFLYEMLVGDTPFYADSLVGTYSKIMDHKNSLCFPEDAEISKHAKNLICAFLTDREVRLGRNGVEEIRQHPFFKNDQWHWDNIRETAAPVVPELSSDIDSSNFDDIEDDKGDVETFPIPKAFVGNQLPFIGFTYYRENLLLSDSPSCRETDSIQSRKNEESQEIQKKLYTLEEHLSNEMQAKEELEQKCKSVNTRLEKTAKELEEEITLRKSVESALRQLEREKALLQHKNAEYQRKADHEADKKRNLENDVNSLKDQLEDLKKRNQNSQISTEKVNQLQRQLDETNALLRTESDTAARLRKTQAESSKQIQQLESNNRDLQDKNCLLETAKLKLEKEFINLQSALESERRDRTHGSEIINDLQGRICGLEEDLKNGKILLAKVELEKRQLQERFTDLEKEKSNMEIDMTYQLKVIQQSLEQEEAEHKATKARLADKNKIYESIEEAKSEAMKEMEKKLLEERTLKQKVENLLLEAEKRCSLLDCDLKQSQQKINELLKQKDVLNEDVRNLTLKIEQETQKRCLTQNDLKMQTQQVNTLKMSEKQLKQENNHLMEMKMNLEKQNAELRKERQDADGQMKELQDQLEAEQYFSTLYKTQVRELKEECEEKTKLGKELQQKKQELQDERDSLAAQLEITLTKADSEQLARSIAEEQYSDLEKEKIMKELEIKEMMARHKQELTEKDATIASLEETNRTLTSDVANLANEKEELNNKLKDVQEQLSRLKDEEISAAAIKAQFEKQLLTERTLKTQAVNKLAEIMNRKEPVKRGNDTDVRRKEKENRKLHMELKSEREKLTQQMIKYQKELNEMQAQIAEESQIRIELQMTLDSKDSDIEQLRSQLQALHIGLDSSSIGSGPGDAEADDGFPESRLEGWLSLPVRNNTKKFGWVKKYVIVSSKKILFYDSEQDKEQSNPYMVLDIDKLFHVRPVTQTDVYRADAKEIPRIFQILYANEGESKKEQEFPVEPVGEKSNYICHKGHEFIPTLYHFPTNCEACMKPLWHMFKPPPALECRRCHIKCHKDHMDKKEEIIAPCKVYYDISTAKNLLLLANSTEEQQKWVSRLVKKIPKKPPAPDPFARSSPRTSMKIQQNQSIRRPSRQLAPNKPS

HGK (MAP4K4) = HGK (MAP4K4) (Homo sapiens, UniProt O95819); assay: SelectScreen in vitro kinase profiling, single point
Sequence of HGK (MAP4K4) (O95819 whole entry): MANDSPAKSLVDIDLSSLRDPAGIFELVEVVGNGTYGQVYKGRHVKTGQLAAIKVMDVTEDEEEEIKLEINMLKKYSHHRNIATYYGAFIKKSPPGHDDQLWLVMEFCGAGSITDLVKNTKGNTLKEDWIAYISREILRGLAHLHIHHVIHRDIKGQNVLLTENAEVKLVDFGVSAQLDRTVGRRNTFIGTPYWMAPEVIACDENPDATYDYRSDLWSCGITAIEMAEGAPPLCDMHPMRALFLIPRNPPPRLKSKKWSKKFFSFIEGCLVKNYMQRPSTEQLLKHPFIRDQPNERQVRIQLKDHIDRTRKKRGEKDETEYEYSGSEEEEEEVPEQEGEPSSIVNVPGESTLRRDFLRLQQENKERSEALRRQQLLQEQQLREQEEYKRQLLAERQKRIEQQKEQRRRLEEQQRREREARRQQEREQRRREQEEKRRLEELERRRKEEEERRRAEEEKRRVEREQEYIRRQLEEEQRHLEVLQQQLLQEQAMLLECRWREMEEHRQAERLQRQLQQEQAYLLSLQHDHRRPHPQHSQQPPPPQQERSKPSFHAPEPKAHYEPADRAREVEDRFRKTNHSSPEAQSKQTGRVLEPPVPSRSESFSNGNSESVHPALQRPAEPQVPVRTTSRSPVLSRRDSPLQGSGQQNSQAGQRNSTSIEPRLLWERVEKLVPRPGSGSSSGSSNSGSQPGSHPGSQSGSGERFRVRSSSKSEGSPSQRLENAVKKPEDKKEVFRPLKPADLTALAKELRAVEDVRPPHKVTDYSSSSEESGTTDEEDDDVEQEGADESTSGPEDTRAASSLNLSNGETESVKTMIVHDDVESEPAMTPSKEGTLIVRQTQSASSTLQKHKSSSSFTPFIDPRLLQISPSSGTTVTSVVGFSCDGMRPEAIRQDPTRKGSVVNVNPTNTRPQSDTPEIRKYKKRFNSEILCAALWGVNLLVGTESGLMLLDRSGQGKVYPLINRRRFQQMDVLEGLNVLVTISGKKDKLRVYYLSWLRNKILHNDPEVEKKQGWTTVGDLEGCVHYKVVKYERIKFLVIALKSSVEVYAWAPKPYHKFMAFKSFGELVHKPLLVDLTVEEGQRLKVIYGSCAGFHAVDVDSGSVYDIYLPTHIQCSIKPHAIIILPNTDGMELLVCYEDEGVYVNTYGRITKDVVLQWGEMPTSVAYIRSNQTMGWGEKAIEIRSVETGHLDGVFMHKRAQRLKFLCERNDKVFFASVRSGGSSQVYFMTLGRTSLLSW

- ROCK inhibitory activity (ROCK): ~40%
- activity against ROCK2 (ROCK2): less activity against ROCKs than YA2
- inhibition at 10 µM (HGK (MAP4K4); read-out: inhibitory activity against HGK (MAP4K4)): 63%
SMILES: CC(C)(C)OC(=O)NCc1ccc(C(=O)Nc2ccncc2)cc1 [YA1, 4-(Pyridin-4-ylcarbamoyl)benzylcarbamic acid tert-butyl ester]
- ROCK inhibitory activity compared to Y27632 (recombinant ROCK): lower ROCK inhibitory activity; also recorded: significantly less activity against ROCK than did their structural analogue Y27632
- cell cycle / apoptotic sub G1 population ([1]; polyclonal GEF16 cells, 10 μM, FIG. 3C): no evidence of alterations in cell cycle or the accumulation of an apoptotic sub G1 population
- cell cycle / apoptotic sub G1 population ([1]; single colony derived GEF16 cells, treated pre or post confluence): no effect on the cell cycle and no apoptotic sub G1 population is seen
- growth suppression / colony formation of Ras transformed NIH3T3 cells ([2]; 10 μM, 10 days, co-culture with non-transformed cells): same growth suppressive effects on Ras transformed NIH3T3 cell colonies as with GEF16 transformed cells; also recorded: highly effective at preventing the formation of Ras transformed NIH3T3 colonies
- contact inhibition and polarity of Ras transformed cells (phase contrast images) ([2]; YA1 treated): regain both contact inhibition and polarity
- activity against HGK (HGK (MAP4K4); additional single point analysis, 10 μM): significant activity against p38, HGK and Aurora A
